Assay results as given in patent publication US20260258004A1, “CRYSTALLINE FORMS OF (6S)-5-[4'-FLUORO-2-(TRIFLUOROMETHYL)BIPHENYL-4-YL]-6-METHYL-3,6- DIHYDRO-2H-l,3,4-OXADIAZIN-2-ONE” (Bayer Aktiengesellschaft, priority 2022, published 2026).

Tests used:
[1] = Thermodynamic stability of the polymorphic forms; assay type: physicochemical; details: between 0° C. and 80° C.
[2] = Schulze ring shear test (flow properties); assay type: physicochemical; details: normal load 1.5 kPa, 24° C., humidity 30%, no storage time
Excerpt: The device used is the Schulze ring shear tester RST-XS.s for which a general technical product information is available on http://www.dietmar-schulze.de. We were using the shear cell XS-SV3. A statement referring to the testing procedure from the technical product information for RST-XS.s reads as follows: • “Testing procedure: The powder sample is contained in an annular shear cell “(FIG. 19B). • “A vertical load ? N] is applied through a thin loading rod on the annular lid. To shear the sample, the shear cell rotates relative to the lid (direction ω), and the torque necessary for shearing is determined from forces and F1 and F2 acting in a tie rod and a push rod. Following a well-defined procedure, which is executed computer-controlled, the flow properties are measured. […]
During the shear test, the bottom ring slowly rotated in the direction of the arrow with the low rotational speed ω of 2 rpm maximum. Rotation of the lid was prevented by the tension rods; the tensile forces F1 and F2 necessary to achieve this are measured by the load cells. From the normal and shear forces respectively stresses, the so-called yield locus was determined, which describes the flow behavior of a bulk solid. […]
The experimental data obtained were analyzed following the method described in Schulze, D. (2008). […] FIG. 21 provides the flow factor of both samples as calculated on basis of the ring shear experiment. […]

thermodynamic stability [1]: thermodynamically stable form
flow behaviour (flow factor ffc) [2]: flowing a bit better than polymorph A
Structure (SMILES): C[C@@H]1OC(=O)NN=C1c1ccc(-c2ccc(F)cc2)c(C(F)(F)F)c1 [polymorph C, (6S)-5-[4′-Fluoro-2-(trifluoromethyl)biphenyl-4-yl]-6-methyl-3,6-dihydro-2H-1,3,4-oxadiazin-2-one]
